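In this assay, cells in 96-well plates receive the compound at five concentrations for 48 hours. Endpoints are linearly interpolated between the surrounding concentrations. TGI is the concentration that stops growth completely.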
Assays:
Assay in all cases: growth of human tumour cells (NCI), 48 h
TK-10 renal = tested on: TK-10 renal
CAKI-1 renal = tested on: CAKI-1 renal
DMS 114 small cell lung = tested on: DMS 114 small cell lung
ACHN renal = tested on: ACHN renal
RPMI-8226 leukemia = tested on: RPMI-8226 leukemia
HOP-92 NSCLC = tested on: HOP-92 NSCLC
RXF 393 renal = tested on: RXF 393 renal
SF-539 CNS = tested on: SF-539 CNS
CCRF-CEM leukemia = tested on: CCRF-CEM leukemia
K-562 leukemia = tested on: K-562 leukemia
LOX IMVI melanoma = tested on: LOX IMVI melanoma
UO-31 renal = tested on: UO-31 renal
M14 melanoma = tested on: M14 melanoma
U251 CNS = tested on: U251 CNS
SK-OV-3 ovarian = tested on: SK-OV-3 ovarian
DMS 273 small cell lung = tested on: DMS 273 small cell lung
OVCAR-8 ovarian = tested on: OVCAR-8 ovarian
EKVX NSCLC = tested on: EKVX NSCLC
786-0 renal = tested on: 786-0 renal
A549 NSCLC = tested on: A549 NSCLC
LXFL 529 NSCLC = tested on: LXFL 529 NSCLC
HCT-15 colon = tested on: HCT-15 colon
MOLT-4 leukemia = tested on: MOLT-4 leukemia
HCT-116 colon = tested on: HCT-116 colon
SF-295 CNS = tested on: SF-295 CNS
NCI-H23 lung = tested on: NCI-H23 lung
SF-268 CNS = tested on: SF-268 CNS
SW-620 colon = tested on: SW-620 colon
DLD-1 colon = tested on: DLD-1 colon
IGROV1 ovarian = tested on: IGROV1 ovarian
HOP-18 NSCLC = tested on: HOP-18 NSCLC
M19-MEL melanoma = tested on: M19-MEL melanoma
UACC-62 melanoma = tested on: UACC-62 melanoma
NCI-H522 lung = tested on: NCI-H522 lung
SK-MEL-5 melanoma = tested on: SK-MEL-5 melanoma
COLO 205 colon = tested on: COLO 205 colon
SN12C renal = tested on: SN12C renal
HL-60(TB) leukemia = tested on: HL-60(TB) leukemia
KM20L2 colon = tested on: KM20L2 colon
SK-MEL-28 melanoma = tested on: SK-MEL-28 melanoma
A498 renal = tested on: A498 renal
NCI-H460 lung = tested on: NCI-H460 lung
KM12 colon = tested on: KM12 colon
HT29 colon = tested on: HT29 colon
SK-MEL-2 melanoma = tested on: SK-MEL-2 melanoma
SNB-19 CNS = tested on: SNB-19 CNS
HCC-2998 colon = tested on: HCC-2998 colon
OVCAR-4 ovarian = tested on: OVCAR-4 ovarian
SNB-78 CNS = tested on: SNB-78 CNS
HOP-62 NSCLC = tested on: HOP-62 NSCLC
MALME-3M melanoma = tested on: MALME-3M melanoma
OVCAR-3 ovarian = tested on: OVCAR-3 ovarian
OVCAR-5 ovarian = tested on: OVCAR-5 ovarian
NCI-H226 lung = tested on: NCI-H226 lung
UACC-257 melanoma = tested on: UACC-257 melanoma
SR leukemia = tested on: SR leukemia
SNB-75 CNS = tested on: SNB-75 CNS
MCF7 breast = tested on: MCF7 breast
PC-3 prostate = tested on: PC-3 prostate
NCI/ADR-RES ovarian = tested on: NCI/ADR-RES ovarian
T-47D breast = tested on: T-47D breast
MDA-MB-231 breast = tested on: MDA-MB-231 breast
MDA-MB-435 = tested on: MDA-MB-435
MDA-N = tested on: MDA-N
BT-549 breast = tested on: BT-549 breast
DU-145 prostate = tested on: DU-145 prostate
HS 578T breast = tested on: HS 578T breast

Measured: TGI

Cc1ccc(O)c(N=Nc2ccc(S(=O)(=O)O)cc2)n1
> 100 µM: TK-10 renal | CAKI-1 renal | DMS 114 small cell lung | ACHN renal | RPMI-8226 leukemia | HOP-92 NSCLC | RXF 393 renal | SF-539 CNS | CCRF-CEM leukemia | K-562 leukemia | LOX IMVI melanoma | UO-31 renal | M14 melanoma | U251 CNS | SK-OV-3 ovarian | DMS 273 small cell lung | OVCAR-8 ovarian | 786-0 renal | A549 NSCLC | LXFL 529 NSCLC | HCT-15 colon | MOLT-4 leukemia | HCT-116 colon | SF-295 CNS | NCI-H23 lung | SF-268 CNS | SW-620 colon | DLD-1 colon | IGROV1 ovarian | HOP-18 NSCLC | M19-MEL melanoma | UACC-62 melanoma | NCI-H522 lung | SK-MEL-5 melanoma | COLO 205 colon | SN12C renal | HL-60(TB) leukemia | KM20L2 colon | SK-MEL-28 melanoma | A498 renal | NCI-H460 lung
47.9 µM: EKVX NSCLC

CCCCC#COS(=O)(=O)c1ccc(C)cc1
> 100 µM: CAKI-1 renal | DMS 114 small cell lung | ACHN renal | KM12 colon | RPMI-8226 leukemia | HT29 colon | SF-539 CNS | CCRF-CEM leukemia | K-562 leukemia | LOX IMVI melanoma | SK-MEL-2 melanoma | SNB-19 CNS | UO-31 renal | M14 melanoma | U251 CNS | HCC-2998 colon | OVCAR-4 ovarian | SK-OV-3 ovarian | SNB-78 CNS | OVCAR-8 ovarian | EKVX NSCLC | 786-0 renal | A549 NSCLC | LXFL 529 NSCLC | HCT-15 colon | MOLT-4 leukemia | HCT-116 colon | HOP-62 NSCLC | MALME-3M melanoma | SF-295 CNS | NCI-H23 lung | SF-268 CNS | SW-620 colon | OVCAR-3 ovarian | DLD-1 colon | IGROV1 ovarian | OVCAR-5 ovarian | UACC-257 melanoma | M19-MEL melanoma | UACC-62 melanoma | NCI-H522 lung | SK-MEL-5 melanoma | SR leukemia | COLO 205 colon | SN12C renal | HL-60(TB) leukemia | KM20L2 colon | A498 renal | NCI-H460 lung
84.9 µM: NCI-H226 lung

COc1cccc([C@@]2(O)c3c(ccc(O)c3OC)[C@H]2OC)c1OC
30.3 µM: 786-0 renal
> 100 µM: ACHN renal | KM12 colon | RPMI-8226 leukemia | HT29 colon | HOP-92 NSCLC | CCRF-CEM leukemia | K-562 leukemia | SK-MEL-2 melanoma | SNB-19 CNS | UO-31 renal | M14 melanoma | U251 CNS | HCC-2998 colon | OVCAR-4 ovarian | SK-OV-3 ovarian | SNB-78 CNS | OVCAR-8 ovarian | EKVX NSCLC | A549 NSCLC | MOLT-4 leukemia | HOP-62 NSCLC | MALME-3M melanoma | SF-295 CNS | NCI-H23 lung | SF-268 CNS | SW-620 colon | OVCAR-3 ovarian | DLD-1 colon | IGROV1 ovarian | SNB-75 CNS | OVCAR-5 ovarian | NCI-H226 lung | UACC-257 melanoma | SK-MEL-5 melanoma | SR leukemia | SN12C renal | KM20L2 colon | SK-MEL-28 melanoma | A498 renal | NCI-H460 lung
62.1 µM: LXFL 529 NSCLC
93.6 µM: TK-10 renal
52.2 µM: NCI-H522 lung
57.3 µM: HL-60(TB) leukemia
78.4 µM: CAKI-1 renal

CCCCCCC1NN(C(C)=O)C(CCCCCC)NN1C(C)=O (stereo unspecified)
> 100 µM: TK-10 renal | CAKI-1 renal | ACHN renal | KM12 colon | HT29 colon | HOP-92 NSCLC | SF-539 CNS | CCRF-CEM leukemia | K-562 leukemia | SK-MEL-2 melanoma | SNB-19 CNS | UO-31 renal | M14 melanoma | U251 CNS | HCC-2998 colon | OVCAR-4 ovarian | SK-OV-3 ovarian | DMS 273 small cell lung | OVCAR-8 ovarian | EKVX NSCLC | 786-0 renal | LXFL 529 NSCLC | HCT-15 colon | MOLT-4 leukemia | HCT-116 colon | HOP-62 NSCLC | MALME-3M melanoma | SF-295 CNS | NCI-H23 lung | OVCAR-3 ovarian | DLD-1 colon | IGROV1 ovarian | SNB-75 CNS | OVCAR-5 ovarian | NCI-H226 lung | HOP-18 NSCLC | UACC-257 melanoma | M19-MEL melanoma | UACC-62 melanoma | NCI-H522 lung | SK-MEL-5 melanoma | COLO 205 colon | SN12C renal | HL-60(TB) leukemia | KM20L2 colon
46.7 µM: LOX IMVI melanoma
67.4 µM: RPMI-8226 leukemia
46.1 µM: SW-620 colon
33.7 µM: NCI-H460 lung

NC(CSS(=O)(=O)c1ccccc1)C(=O)O (stereo unspecified)
> 10 µM: TK-10 renal | MCF7 breast | CAKI-1 renal | ACHN renal | KM12 colon | RPMI-8226 leukemia | HT29 colon | HOP-92 NSCLC | RXF 393 renal | SF-539 CNS | CCRF-CEM leukemia | K-562 leukemia | LOX IMVI melanoma | SK-MEL-2 melanoma | SNB-19 CNS | UO-31 renal | PC-3 prostate | M14 melanoma | NCI/ADR-RES ovarian | U251 CNS | HCC-2998 colon | OVCAR-4 ovarian | T-47D breast | SK-OV-3 ovarian | OVCAR-8 ovarian | EKVX NSCLC | 786-0 renal | MDA-MB-231 breast | A549 NSCLC | HCT-15 colon | MOLT-4 leukemia | HCT-116 colon | HOP-62 NSCLC | MALME-3M melanoma | SF-295 CNS | NCI-H23 lung | SF-268 CNS | MDA-MB-435 | SW-620 colon | OVCAR-3 ovarian | IGROV1 ovarian | SNB-75 CNS | OVCAR-5 ovarian | NCI-H226 lung | UACC-257 melanoma | MDA-N | UACC-62 melanoma | NCI-H522 lung | SK-MEL-5 melanoma | SR leukemia | COLO 205 colon | SN12C renal | BT-549 breast | HL-60(TB) leukemia | DU-145 prostate | HS 578T breast | SK-MEL-28 melanoma | A498 renal | NCI-H460 lung

Source: PubChem BioAssay (NCI)
